In article PMC5478271, “Chemical structure-guided design of dynapyrazoles, cell-permeable dynein inhibitors with a unique mode of action” (eLife, 2017):
Where two headings read alike, the source gives them in different places.

Target: T1, human cytoplasmic dynein 1 (GFP-dynein 1, AA 1320–4646) (Homo sapiens, UniProt Q14204)
T1 construct: (AA 1320–4646 with additional valine [at position 4647], uniprot Q14204); protein A tag (followed by TEV-cleavable linker) (N, cleaved yes); made in house; host or cells: insect cells (baculovirus)
T1 sequence (Q14204 with tags, fused parts or gaps): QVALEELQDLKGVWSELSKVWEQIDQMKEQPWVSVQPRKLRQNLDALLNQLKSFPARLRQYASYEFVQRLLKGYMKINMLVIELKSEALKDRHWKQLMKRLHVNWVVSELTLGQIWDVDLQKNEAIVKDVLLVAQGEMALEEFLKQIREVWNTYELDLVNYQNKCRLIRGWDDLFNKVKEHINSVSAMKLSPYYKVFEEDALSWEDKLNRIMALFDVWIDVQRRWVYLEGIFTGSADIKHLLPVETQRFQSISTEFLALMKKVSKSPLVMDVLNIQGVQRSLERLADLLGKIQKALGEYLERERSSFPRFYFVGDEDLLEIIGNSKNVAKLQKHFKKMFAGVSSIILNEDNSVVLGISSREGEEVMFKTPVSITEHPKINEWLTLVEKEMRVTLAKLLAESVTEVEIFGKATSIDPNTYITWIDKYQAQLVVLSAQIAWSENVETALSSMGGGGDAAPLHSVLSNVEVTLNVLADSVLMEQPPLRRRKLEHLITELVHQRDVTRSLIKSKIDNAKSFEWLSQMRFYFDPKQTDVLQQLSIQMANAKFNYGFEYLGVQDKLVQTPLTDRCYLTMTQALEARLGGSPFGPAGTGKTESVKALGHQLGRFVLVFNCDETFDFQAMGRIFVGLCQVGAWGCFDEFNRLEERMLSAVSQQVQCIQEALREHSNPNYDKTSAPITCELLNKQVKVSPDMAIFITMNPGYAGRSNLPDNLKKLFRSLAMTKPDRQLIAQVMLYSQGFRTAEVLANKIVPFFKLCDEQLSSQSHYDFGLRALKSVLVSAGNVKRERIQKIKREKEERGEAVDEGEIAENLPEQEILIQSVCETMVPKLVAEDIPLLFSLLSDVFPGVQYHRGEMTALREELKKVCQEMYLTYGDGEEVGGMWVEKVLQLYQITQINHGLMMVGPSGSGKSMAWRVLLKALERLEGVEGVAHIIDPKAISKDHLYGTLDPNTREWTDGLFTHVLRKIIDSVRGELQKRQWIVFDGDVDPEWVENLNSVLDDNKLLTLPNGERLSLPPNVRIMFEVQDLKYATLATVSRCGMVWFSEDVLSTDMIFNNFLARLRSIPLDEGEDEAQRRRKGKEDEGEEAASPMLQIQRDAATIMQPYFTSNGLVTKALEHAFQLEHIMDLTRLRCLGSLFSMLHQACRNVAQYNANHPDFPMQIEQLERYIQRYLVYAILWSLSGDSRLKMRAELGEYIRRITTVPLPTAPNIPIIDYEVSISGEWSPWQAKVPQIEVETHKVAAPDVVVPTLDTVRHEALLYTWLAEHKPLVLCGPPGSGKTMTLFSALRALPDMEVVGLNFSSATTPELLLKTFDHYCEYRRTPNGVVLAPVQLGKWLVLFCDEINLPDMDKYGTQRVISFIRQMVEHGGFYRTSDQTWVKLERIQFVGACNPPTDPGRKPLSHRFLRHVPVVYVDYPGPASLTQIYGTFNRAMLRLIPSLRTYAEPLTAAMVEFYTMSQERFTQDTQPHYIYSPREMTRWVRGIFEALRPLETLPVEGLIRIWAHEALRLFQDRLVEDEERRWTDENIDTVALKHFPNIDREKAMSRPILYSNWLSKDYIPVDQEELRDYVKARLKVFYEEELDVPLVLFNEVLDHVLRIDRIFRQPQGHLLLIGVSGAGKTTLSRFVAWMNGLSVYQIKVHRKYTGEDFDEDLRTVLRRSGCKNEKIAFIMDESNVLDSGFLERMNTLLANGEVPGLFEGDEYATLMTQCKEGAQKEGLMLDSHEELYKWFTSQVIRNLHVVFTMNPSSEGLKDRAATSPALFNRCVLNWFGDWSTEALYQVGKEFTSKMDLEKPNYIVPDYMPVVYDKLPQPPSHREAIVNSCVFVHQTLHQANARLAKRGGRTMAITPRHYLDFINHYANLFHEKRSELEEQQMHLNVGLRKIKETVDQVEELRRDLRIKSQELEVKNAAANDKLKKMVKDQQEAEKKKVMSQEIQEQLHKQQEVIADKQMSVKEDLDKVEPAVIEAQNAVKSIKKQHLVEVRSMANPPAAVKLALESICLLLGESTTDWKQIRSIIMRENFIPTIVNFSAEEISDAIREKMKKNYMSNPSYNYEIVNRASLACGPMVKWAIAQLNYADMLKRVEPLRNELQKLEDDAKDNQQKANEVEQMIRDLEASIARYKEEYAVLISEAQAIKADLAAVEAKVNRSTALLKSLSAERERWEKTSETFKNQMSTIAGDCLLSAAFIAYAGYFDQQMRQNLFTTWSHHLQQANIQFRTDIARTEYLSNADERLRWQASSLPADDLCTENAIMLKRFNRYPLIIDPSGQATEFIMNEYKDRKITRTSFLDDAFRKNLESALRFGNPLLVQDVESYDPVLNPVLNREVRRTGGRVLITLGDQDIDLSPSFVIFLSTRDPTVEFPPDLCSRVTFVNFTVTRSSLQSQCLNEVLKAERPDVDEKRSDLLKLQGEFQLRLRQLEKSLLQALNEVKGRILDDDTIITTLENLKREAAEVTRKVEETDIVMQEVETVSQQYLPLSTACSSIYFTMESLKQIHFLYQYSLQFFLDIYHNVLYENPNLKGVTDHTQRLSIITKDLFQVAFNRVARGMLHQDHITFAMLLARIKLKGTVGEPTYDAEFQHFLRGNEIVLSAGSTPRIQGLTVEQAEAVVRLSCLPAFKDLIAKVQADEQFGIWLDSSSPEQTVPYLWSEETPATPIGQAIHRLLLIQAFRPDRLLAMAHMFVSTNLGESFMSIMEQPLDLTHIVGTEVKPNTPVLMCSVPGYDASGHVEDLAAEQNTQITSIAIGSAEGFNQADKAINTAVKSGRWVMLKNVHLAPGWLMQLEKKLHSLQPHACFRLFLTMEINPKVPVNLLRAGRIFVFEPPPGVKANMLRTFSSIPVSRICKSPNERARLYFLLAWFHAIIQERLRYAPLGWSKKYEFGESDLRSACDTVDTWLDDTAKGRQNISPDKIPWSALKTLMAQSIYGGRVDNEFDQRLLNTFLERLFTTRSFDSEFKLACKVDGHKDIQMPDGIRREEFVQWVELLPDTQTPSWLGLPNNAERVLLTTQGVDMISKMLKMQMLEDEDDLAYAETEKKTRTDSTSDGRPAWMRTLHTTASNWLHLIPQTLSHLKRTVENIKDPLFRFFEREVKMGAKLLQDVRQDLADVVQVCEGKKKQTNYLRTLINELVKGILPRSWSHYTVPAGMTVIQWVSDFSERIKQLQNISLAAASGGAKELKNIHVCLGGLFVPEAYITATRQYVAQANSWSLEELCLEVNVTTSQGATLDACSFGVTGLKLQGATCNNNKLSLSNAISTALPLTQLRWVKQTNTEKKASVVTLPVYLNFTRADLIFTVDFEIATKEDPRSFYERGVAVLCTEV
Assay: Microtubule gliding (motility) assay with GFP-dynein 1
Assay type: biochemical
Source text: To examine the inhibition of dynein 1 by dynapyrazole-A in vitro we generated recombinant human protein. We expressed and purified a GFP-tagged human dynein 1 (AA 1320–4646) construct similar to the one we used for GFP-dynein 2. […] GFP-dynein 1 moves microtubules at 508 ± 60 nm/s (n = 5 independent experiments, 191 microtubules analyzed), a velocity expected based on studies of other mammalian dynein 1 homologs ([Yamada et al., 2008]). Under these conditions, ~97% of the filaments analyzed had velocities >50 nm/s (Figure 5—figure supplement 1). […] As has been previously noted for ciliobrevin D, the potency of dynapyrazole-A was sensitive to the protein (e.g. blocking agent, serum) concentration in solution (Figure 5—figure supplement 4), likely due to the hydrophobicity of these compounds (calculated logarithm of octanol:water partition coefficient [ClogP]: ciliobrevin D: 4.5; dynapyrazole-A: 4.2) ([Firestone et al., 2012]).
Reaction setup: A coverslip-based motility assay was adapted from similar assays reported previously ([Firestone et al., 2012]; [Schmidt et al., 2015]). A flow chamber assembled on a pre-cleaned microscope coverslide (3–5 µL chamber volume) was hydrated with buffer A (25 mM PIPES, 30 mM KCl, 5 mM MgCl2, 1 mM EGTA, 0.01% Triton X-100, 1 mM DTT, 20 µM taxol, pH 7.0 with KOH). Anti-GFP antibody (0.4 mg/mL, affinity purified rabbit antibody) was flowed into the chamber and allowed to adhere non-specifically to the glass for 20 s. The surface was blocked using 0.5 mg/mL α-casein in buffer A. Excess protein was then washed away with buffer A. GFP-dynein motor domain was diluted in buffer A supplemented with 1 mM DTT and 0.1 mM ATP (2 mM DTT final; GFP-dynein 2 diluted to: 180 nM; GFP-dynein 1 diluted to: 60 nM), flowed into the chamber and allowed to bind for 20 s. Excess protein was washed away with buffer A. Reaction mix (25 mM PIPES, 90 mM KCl, 6 mM MgCl2, 1 mM EGTA, 0.01% Triton X-100, 3 mM DTT, 20 µM taxol, 1 mM ATP, 1x oxygen scavenging system components [4.5 mg/mL glucose, 35 µg/mL catalase, 200 µg/mL glucose oxidase], 2% final DMSO [v/v] with compounds at appropriate concentrations, 0.05 mg/mL α-casein, microtubules [rhodamine labeled, purified from bovine brain, GMP-CPP and Taxol-stabilized], pH 7.0 with KOH) was flowed into the chamber using ~4 chamber volumes. For experiments shown in Figure 4—figure supplement 1, α-casein concentration in reaction mix was 0.5 mg/mL and all other parameters were held constant.
For reversibility experiments, motility in the presence of 5 µM 8 was observed as above, and upon completion of imaging, the chamber, fresh buffer A supplemented with 1 mM ATP was flowed into the chamber and incubated for 1 min; this wash and incubation cycle was repeated twice. Reaction mix containing DMSO (no compound) was flowed into the chamber using ~4 chamber volumes. The chamber was sealed with valap and returned to the microscope.
Microscopy conditions: Following addition of reaction mix, microtubules were allowed to bind for 5 min before imaging. For reversibility experiments, microtubules were allowed to bind for 10 min before imaging. […] Velocities were measured using the kymograph tool in FIJI ([Schindelin et al., 2012]). […]
Microtubule velocity measurements: the tracks of microtubules were traced and converted to kymographs (x axis-displacement, y axis-time) using the kymograph function of FIJI (RRID: SCR_002285). The angle formed between an edge of a microtubule and the horizontal was measured. […]

[1] = 1 mM MgATP, 0.05 mg/mL casein, 2% DMSO, read-out: IC50, inhibition of GFP-dynein 1-driven motility

N#C/C(C(=O)c1ccc(Cl)cc1Cl)=C1\NC(=O)c2ccc(Cl)cc2N1 [ciliobrevin D, reference compound]
IC50 [1]: 15 ± 2.9 µM

N#Cc1c(C2(c3ccc(Cl)cc3)CC2)nn2c1[nH]c(=O)c1cc(I)ccc12 [Compound 8, 2-[1-(4-chlorophenyl)cyclopropyl]-7-iodo-5-oxo-4H-pyrazolo[1,5-a]quinazoline-3-carbonitrile]
Reversibility of inhibition of dynein-1-dependent microtubule gliding after washout (5 µM 8, then washout, 1 mM ATP, 0.05 mg/mL casein): reversed following washout | IC50 (1 mM ATP, 0.5 mg/mL casein, read-out: IC50, inhibition of GFP-dynein 1-driven motility in the presence of 0.5 mg/ml casein): 10.5 ± 4.6 µM | IC50 [1]: 2.3 ± 1.4 µM | Potency relative to ciliobrevin D, GFP-dynein-1-driven motility (more potent than ciliobrevin D): ~ 6 fold
